Read-outs that look alike come from different tables or passages of the source.
How the values were obtained:
MOLM-13 cells = experiment: Cell viability assay (CellTiter-Glo) in MOLM-13 cells, alone or with gilteritinib; assay type: cell-based; settings: Homo sapiens, MOLM-13 cells, three days, CellTiter-Glo
MV4;11 cells = experiment: Cell viability assay (CellTiter-Glo) in MV4;11 cells, alone or with gilteritinib; assay type: cell-based; settings: Homo sapiens, MV4;11 cells, three days, CellTiter-Glo, read-out: MV4
[1] = MOLM-13, 72 h, compound alone (without gilteritinib), read-out: MOLM-13 IC50
[2] = MOLM-13, 72 h, with gilteritinib 20 nM, read-out: MOLM-13 IC50 gilteritinib
[3] = MV4-11, 72 h, compound alone (without gilteritinib), 11 IC50
[4] = MV4-11, 72 h, with gilteritinib 10 nM, 11 IC50 gilteritinib
[5] = 72 h, compound alone (without gilteritinib), read-out: MOLM-13 IC50
[6] = 72 h, with gilteritinib 20 nM, read-out: MOLM-13 IC50 gilteritinib
[7] = 72 h, compound alone (without gilteritinib), 11 IC50
[8] = 72 h, with gilteritinib 10 nM, 11 IC50 gilteritinib

| Compound | IC50 (MOLM-13 cells; [1]) [nM] | IC50 (MOLM-13 cells; [2]) [nM] | IC50 (MV4;11 cells; [3]) [nM] | IC50 (MV4;11 cells; [4]) [nM] | IC50 (MOLM-13 cells; [5]) [nM] | IC50 (MOLM-13 cells; [6]) [nM] | IC50 (MV4;11 cells; [7]) [nM] | IC50 (MV4;11 cells; [8]) [nM] |
| --- | --- | --- | --- | --- | --- | --- | --- | --- |
| O=C1CCC(N2Cc3c(Nc4ccnc(Nc5cccc(N6CCC(c7ccccn7)CC6)c5)n4)cccc3C2=O)C(=O)N1 (stereo not drawn) [GS-077, 3-(1-Oxo-4-((2-((3-(4-(pyridin-2-yl)piperidin-1-yl)phenyl)amino)pyrimidin-4-yl)amino)isoindolin-2-yl)piperidine-2,6-dione] | 10 to 100 | < 10 | < 10 | < 10 |  |  |  |  |
| O=C1CCC(N2Cc3c(Nc4ccnc(Nc5cccc(N6CCN(c7ncccn7)CC6)c5)n4)cccc3C2=O)C(=O)N1 (stereo not drawn) [GS-078, 3-(1-Oxo-4-((2-((3-(4-(pyrimidin-2-yl)piperazin-1-yl)phenyl)amino)pyrimidin-4-yl)amino)isoindolin-2-yl)piperidine-2,6-dione] | 10 to 100 | < 10 | 10 to 100 | < 10 |  |  |  |  |
| O=C1CCC(N2Cc3c(Nc4ccnc(Nc5cccc(C(=O)N6CCC(n7cc(-c8cnc9ccccc9n8)cn7)CC6)c5)n4)cccc3C2=O)C(=O)N1 (stereo not drawn) [GS-079, 3-(1-Oxo-4-((2-((3-(4-(4-(quinoxalin-2-yl)-1H-pyrazol-1-yl)piperidine-1-carbonyl)phenyl)amino)pyrimidin-4-yl)amino)isoindolin-2-yl)piperidine-2,6-dione] | > 1000 | 100 to 1000 | 100 to 1000 | 10 to 100 |  |  |  |  |
| O=C1CCC(N2Cc3c(Nc4ccnc(Nc5cccc(C(=O)N6CCN(c7ccccn7)CC6)c5)n4)cccc3C2=O)C(=O)N1 (stereo not drawn) [GS-080, 3-(1-Oxo-4-((2-((3-(4-(pyridin-2-yl)piperazine-1-carbonyl)phenyl)amino)pyrimidin-4-yl)amino)isoindolin-2-yl)piperidine-2,6-dione] | > 1000 | 100 to 1000 | > 1000 | 100 to 1000 |  |  |  |  |
| O=C1CCC(N2Cc3c(Nc4ccnc(N5CCC(n6cc(-c7cnc8ccccc8n7)cn6)CC5)n4)cccc3C2=O)C(=O)N1 (stereo not drawn) [GS-081, 3-(1-Oxo-4-((2-(4-(4-(quinoxalin-2-yl)-1H-pyrazol-1-yl)piperidin-1-yl)pyrimidin-4-yl)amino)isoindolin-2-yl)piperidine-2,6-dione] | > 1000 | > 1000 | > 1000 | > 1000 |  |  |  |  |
| O=C(CC1CC(N2CCC(n3cc(-c4cnc5ccccc5n4)cn3)CC2)C1)NCc1ccc2c(c1)CN(C1CCC(=O)NC1=O)C2=O (stereo not drawn) [GS-082, N-((2-(2,6-Dioxopiperidin-3-yl)-1-oxoisoindolin-5-yl)methyl)-2-(3-(4-(4-(quinoxalin-2-yl)-1H-pyrazol-1-yl)piperidin-1-yl)cyclobutyl)acetamide] | > 1000 | 100 to 1000 | > 1000 | 100 to 1000 |  |  |  |  |
| O=C(CC1CC1N1CCC(n2cc(-c3cnc4ccccc4n3)cn2)CC1)NCc1ccc2c(c1)CN(C1CCC(=O)NC1=O)C2=O (stereo not drawn) [GS-083, N-((2-(2,6-Dioxopiperidin-3-yl)-1-oxoisoindolin-5-yl)methyl)-2-(2-(4-(4-(quinoxalin-2-yl)-1H-pyrazol-1-yl)piperidin-1-yl)cyclopropyl)acetamide] | 100 to 1000 | 10 to 100 | 10 to 100 | 10 to 100 |  |  |  |  |
| O=C1CCC(N2Cc3c(Nc4ccnc(Nc5cccc(-n6cc(-c7cnc8ccccc8n7)cn6)c5)n4)cccc3C2=O)C(=O)N1 (stereo not drawn) [GS-084, 3-(1-Oxo-4-((2-((3-(4-(quinoxalin-2-yl)-1H-pyrazol-1-yl)phenyl)amino)pyrimidin-4-yl)amino)isoindolin-2-yl)piperidine-2,6-dione] | > 1000 | > 1000 | > 1000 | > 1000 |  |  |  |  |
| O=C1CCC(N2Cc3c(Nc4ccnc(NCCC(=O)N5CCC(n6cc(-c7cnc8ccccc8n7)cn6)CC5)n4)cccc3C2=O)C(=O)N1 (stereo not drawn) [GS-085, 3-(1-Oxo-4-((2-((3-oxo-3-(4-(4-(quinoxalin-2-yl)-1H-pyrazol-1-yl)piperidin-1-yl)propyl)amino)pyrimidin-4-yl)amino)isoindolin-2-yl)piperidine-2,6-dione] | > 1000 | > 1000 | > 1000 | > 1000 |  |  |  |  |
| O=C(CC1CCCC(N2CCC(n3cc(-c4cnc5ccccc5n4)cn3)CC2)C1)NCc1ccc2c(c1)CN(C1CCC(=O)NC1=O)C2=O (stereo not drawn) [GS-086, N-((2-(2,6-dioxopiperidin-3-yl)-1-oxoisoindolin-5-yl)methyl)-2-(3-(4-(4-(quinoxalin-2-yl)-1H-pyrazol-1-yl)piperidin-1-yl)cyclohexyl)acetamide] | > 1000 | > 1000 | > 1000 | 100 to 1000 |  |  |  |  |
| O=C(CNc1cccc(N2CCC(n3cc(-c4cnc5ccccc5n4)cn3)CC2)c1)NCc1scc2c1CN(C1CCC(=O)NC1=O)C2=O (stereo not drawn) [GS-087, N-((5-(2,6-dioxopiperidin-3-yl)-4-oxo-5,6-dihydro-4H-thieno[3,4-c]pyrrol-1-yl)methyl)-2-((3-(4-(4-(quinoxalin-2-yl)-1H-pyrazol-1-yl)piperidin-1-yl)phenyl)amino)acetamide] | < 10 | < 10 | < 10 | < 10 |  |  |  |  |
| O=C1CCC(N2Cc3c(Nc4ccnc(NCCCN5CCC(n6cc(-c7cnc8ccccc8n7)cn6)CC5)n4)cccc3C2=O)C(=O)N1 (stereo not drawn) [GS-088, 3-(1-Oxo-4-((2-((3-(4-(4-(quinoxalin-2-yl)-1H-pyrazol-1-yl)piperidin-1-yl)propyl)amino)pyrimidin-4-yl)amino)isoindolin-2-yl)piperidine-2,6-dione] | > 1000 | > 1000 | > 1000 | > 1000 |  |  |  |  |
| O=C(CC1CCC(N2CCC(n3cc(-c4cnc5ccccc5n4)cn3)CC2)CC1)NCc1ccc2c(c1)CN(C1CCC(=O)NC1=O)C2=O (stereo not drawn) [GS-089, N-((2-(2,6-dioxopiperidin-3-yl)-1-oxoisoindolin-5-yl)methyl)-2-(4-(4-(4-(quinoxalin-2-yl)-1H-pyrazol-1-yl)piperidin-1-yl)cyclohexyl)acetamide] | > 1000 | > 1000 | > 1000 | > 1000 |  |  |  |  |
| O=C1CCC(N2Cc3c(Nc4cccc(Nc5cccc(N6CCC(n7cc(-c8cnc9ccccc9n8)cn7)CC6)c5)n4)cccc3C2=O)C(=O)N1 (stereo not drawn) [GS-090, 3-(1-Oxo-4-((6-((3-(4-(4-(quinoxalin-2-yl)-1H-pyrazol-1-yl)piperidin-1-yl)phenyl)amino)pyridin-2-yl)amino)isoindolin-2-yl)piperidine-2,6-dione] | 10 to 100 | < 10 | 10 to 100 | < 10 |  |  |  |  |
| O=C1CCC(N2Cc3c(Nc4ccnc(NCC(=O)N5CCC(n6cc(-c7cnc8ccccc8n7)cn6)CC5)n4)cccc3C2=O)C(=O)N1 (stereo not drawn) [GS-091, 3-(1-Oxo-4-((2-((2-oxo-2-(4-(4-(quinoxalin-2-yl)-1H-pyrazol-1-yl)piperidin-1-yl)ethyl)amino)pyrimidin-4-yl)amino)isoindolin-2-yl)piperidine-2,6-dione] | > 1000 | > 1000 | > 1000 | > 1000 |  |  |  |  |
| O=C1CCC(N2Cc3c(Nc4ccnc(NC5CCC(N6CCC(n7cc(-c8cnc9ccccc9n8)cn7)CC6)C5)n4)cccc3C2=O)C(=O)N1 (stereo not drawn) [GS-092, 3-(1-Oxo-4-((2-((3-(4-(4-(quinoxalin-2-yl)-1H-pyrazol-1-yl)piperidin-1-yl)cyclopentyl)amino)pyrimidin-4-yl)amino)isoindolin-2-yl)piperidine-2,6-dione] | > 1000 | > 1000 | > 1000 | > 1000 |  |  |  |  |
| O=C1CCC(N2Cc3c(csc3CNC(=O)Nc3cccc(N4CCC(n5cc(-c6cnc7ccccc7n6)cn5)CC4)c3)C2=O)C(=O)N1 (stereo not drawn) [GS-093, 1-((5-(2,6-Dioxopiperidin-3-yl)-4-oxo-5,6-dihydro-4H-thieno[3,4-c]pyrrol-1-yl)methyl)-3-(3-(4-(4-(quinoxalin-2-yl)-1H-pyrazol-1-yl)piperidin-1-yl)phenyl)urea] | < 10 | < 10 | < 10 | < 10 |  |  |  |  |
| O=C1CCC(N2Cc3c(Nc4ccnc(Nc5cccc(N6CCC(N7CCCCC7)CC6)c5)n4)cccc3C2=O)C(=O)N1 (stereo not drawn) [GS-094, 3-(4-((2-((3-([1,4′-Bipiperidin]-1′-yl)phenyl)amino)pyrimidin-4-yl)amino)-1-oxoisoindolin-2-yl)piperidine-2,6-dione] | > 1000 | > 1000 | > 1000 | > 1000 |  |  |  |  |
| O=C1CCC(N2Cc3ccc(CCCCCC(=O)N4CCC(c5ccccc5)CC4)cc3C2=O)C(=O)N1 (stereo not drawn) [GS-095, 3-(1-Oxo-6-(6-oxo-6-(4-phenylpiperidin-1-yl)hexyl)isoindolin-2-yl)piperidine-2,6-dione] |  |  |  |  | 100 to 1000 | 10 to 100 | 100 to 1000 | 10 to 100 |
| O=C1CCC(N2Cc3ccc(CCCCCCC(=O)N4CCN(c5ccccn5)CC4)cc3C2=O)C(=O)N1 (stereo not drawn) [GS-096, 3-(1-Oxo-6-(7-oxo-7-(4-(pyridin-2-yl)piperazin-1-yl)heptyl)isoindolin-2-yl)piperidine-2,6-dione] |  |  |  |  | 100 to 1000 | < 10 | 10 to 100 | < 10 |
| O=C1CCC(N2Cc3ccc(CCCCCCC(=O)N4CCC(n5cc(-c6cnc7ccccc7n6)cn5)CC4)cc3C2=O)C(=O)N1 (stereo not drawn) [GS-097, 3-(1-Oxo-6-(7-oxo-7-(4-(4-(quinoxalin-2-yl)-1H-pyrazol-1-yl)piperidin-1-yl)heptyl)isoindolin-2-yl)piperidine-2,6-dione] | 10 to 100 | < 10 | 10 to 100 | < 10 |  |  |  |  |

Source: US20240050428A1 (Cullgen (Shanghai), Inc., priority 2020, published 2024)
